Measurements published in patent US20060194874A1, “Use of propionyl l-carnitine for the preparation of a medicament for the treatment of glaucoma” (priority 2002, published 2006).

Experiments:
[1] = tested on: patients suffering from glaucoma; experiment: Clinical trial: ocular colour Doppler ultrasonography, visual field (Octopus) and intraocular pressure; assay type: in vivo, human
Method: Ten patients suffering from glaucoma were treated with propionyl L-carnitine (DROMOS®) by mouth at a dose of 2 g/day for periods ranging from 15 to 50 days. Ocular arterial flow was studied by means of ocular colour Doppler ultrasonography. The posterior (nasal) ciliary artery, the posterior (temporal) ciliary artery, the central retinal and ophthalmic arteries were examined. Systolic and diastolic flow rates were expressed in cm/sec; the ratio (systolic—diastolic flow)/systolic flow expresses the peripheral resistance index. Visual fields before and after treatment with DROMOS® were compared.

[2] = tested on: ganglionic cells of the retina and/or astrocytes of the optic nerve; experiment: In-vivo rat model of methylcellulose (MTC)-induced intraocular hypertension (experimental glaucoma): histology and TUNEL
Method: The effect of propionyl L-carnitine was evaluated in an in-vivo experimental rat model. This model of induction of programmed cell death (apoptosis) and/or necrosis of ganglionic cells of the retina and/or astrocytes of the optic nerve is described in the above-mentioned Acta Ophthalmologica Scandinavica, 1988, Supplement 27, 20-21 and Experimental Postgraduate Degree Thesis, Institute of Ophthalmology, “La Sapienza” University, Rome. Intraocular hypertension was induced by means of injecting methylcellulose (MTC) into the anterior chamber. The rats were divided into three groups: 1) untreated (blanks), 2) rats treated with 2% MTC (10 μL), and 3) rats treated with MTC and propionyl L-carnitine 0.15 mM final concentration injected into the anterior chamber. In semithin histological sections of untreated rat optic nerve (haematoxylin-eosin staining), normal longitudinal organisation of the astrocytes among the fibres was detected (FIG. 1A). In contrast, in rats treated with MTC, loss of cell organisation and the presence of necrotic astrocytes were detected (FIG. 1B).

[3] = tested on: 3T6 cells (murine fibroblast line); experiment: Cell count with erythrosine stain, 3T6 cells grown in complete medium; assay type: cell-based; conditions: 3T6 cells in complete medium, count 24 hours after administration
Method: 3T6 cells (murine fibroblast line) grown in complete medium (DMEM: 10% NBS, 2% PEST and 2% glutamine) were treated with propionyl L-carnitine 24 hours after plating the cells. 48 hours after plating (24 hours after administration of the substance), a cell count was performed on the cells thus treated with an erythrosine stain that detects cells that are no longer viable (diluted 1:5 with PBS A buffer) from which the cell survival data were obtained. As controls, we used cells cultivated in complete medium on which the cell count was performed, again 24 hours after plating.

[4] = tested on: 3T6 cells (murine fibroblast line); experiment: TUNEL reaction in vitro (chromatin status) in serum-deprived 3T6 cells; assay type: cell-based
Method: (§1) To assess the chromatin status (and thus the apoptosis) in serum-deprived 3T6 cells, and, in cells treated with propionyl L-carnitine, a TUNEL (terminal deoxynucleotidyl transferase-mediated dUTP-biotin end labelling) reaction was performed in vitro. TUNEL labelling is a technique that consists in the addition of nucleotides (conjugated with fluorescein) at the free 3′-OH extremities present in the fragmented DNA. This reaction is catalysed by the terminal enzyme transferase. The TUNEL technique was performed on untreated serum-deprived cells and on serum-deprived cells to which the three concentrations (0.25 mM, 0.55 mM, and 1.1 mM) of propionyl L-carnitine already used for the cell counts were administered. […] The binding of the primary antibody with its epitope to BAX was detected with a secondary antibody that exploits DAB ([…]) staining. The cells subjected to cytoimmunological localisation were deprived of serum 24 hours after plating and treated with propionyl L-carnitine at the above-mentioned concentrations. Cells grown in complete medium were used as the positive control, while the negative control was prepared with cells deprived of serum 24 hours after plating.

BAX = experiment: Cytoimmunological localisation of BAX (DAB staining, haematoxylin counterstain) in serum-deprived 3T6 cells; assay type: cell-based, murine
Method: as §1
Counterstaining with a nuclear dye such as haematoxylin was also performed in order to confirm the fact that the staining obtained with cytoimmunological localisation was effectively cytoplasmic. On the basis of the data reported in the literature, in fact, it is known that BAX is a cytoplasmically localised protein. […] On comparing the data obtained in the cell counts, with the TUNEL technique and with cytoimmunological localisation, an improvement can be found in cell survival after treatment with propionyl L-carnitine. This proves evident both in cells grown in complete medium and in cells grown in conditions in which apoptosis is induced as a result of serum deprivation.

[5] = tested on: 3T6 cells (murine fibroblast line); experiment: Cell count with erythrosine staining, serum-deprived 3T6 cells (induced apoptosis); assay type: cell-based; conditions: 0.25 mM, 0.55 mM, 1.1 mM
Method: In subsequent experiments, apoptosis was induced in 3T6 cells 24 hours after plating by means of serum deprivation, and simultaneously propionyl L-carnitine was added to the cells. Three different concentrations of the compound were used: 0.25 mM, 0.55 mM and 1.1 mM. 48 hours after plating (24 hours after administration of the substance) a cell count with erythrosine staining was performed. Cells grown in complete medium were taken as the negative control and serum-deprived cells as the positive control.

[6] = ten glaucoma patients, 2 g/day by mouth, 15 to 50 days

CCC(=O)O[C@H](CC(=O)[O-])C[N+](C)(C)C [propionyl L-carnitine]
Visual field (Octopus) after treatment, MD ([1]; Patient 1, OS, 30 days of treatment, before treatment 2): 5.6
Visual field (Octopus) after treatment, MS ([1]; Patient 1, OS, 30 days of treatment, before treatment 11.6): 20.2
Posterior nasal ciliary artery resistance index (R.I.) after treatment ([1]; Patient 1, SN, 30 days, before treatment 0.63): 0.66
Posterior nasal ciliary artery diastolic flow after treatment ([1]; Patient 1, SN, 30 days, before treatment 2.21): 5.75 cm/sec
Posterior nasal ciliary artery systolic flow after treatment ([1]; Patient 1, SN, 30 days, before treatment 5.96): 16.7 cm/sec
Posterior temporal ciliary artery resistance index (R.I.) after treatment ([1]; Patient 2, DX, 12 days, before treatment (SN) 0.67): 0.55
Posterior temporal ciliary artery diastolic flow after treatment ([1]; Patient 2, DX, 12 days, before treatment (SN) 1.92): 3.86 cm/sec
Posterior temporal ciliary artery systolic flow after treatment ([1]; Patient 2, DX, 12 days, before treatment (SN) 5.75): 8.65 cm/sec
Visual field (Octopus) after treatment, MD ([1]; Patient 2, OD, 12 days of treatment, before treatment 11.1): 8.4
Visual field (Octopus) after treatment, MS ([1]; Patient 2, OD, 12 days of treatment, before treatment 15.5): 16.2
visual fields ([1]; subjects with stable glaucoma, 2 g/day by mouth): improves visual fields
intraocular pressure (IOP) [1, 6]: no significant reduction in IOP
ocular arterial flows [1, 6]: increases the flows
peripheral resistance index in the sectors affected [1, 6]: reduces the resistance index
organisation of astrocytes in semithin histological sections of optic nerve ([2]; rats treated with 2% MTC (10 μL) and propionyl L-carnitine 0.15 mM final concentration, injected into the anterior chamber, haematoxylin-eosin, FIG. 1C): longitudinal organisation among the fibres
necrotic cells (astrocytes) in optic nerve sections ([2]; rats treated with 2% MTC and propionyl L-carnitine 0.15 mM, anterior chamber, FIG. 1C): no necrotic cells were detected
TUNEL fluorescence (apoptotic cells) in optic nerves ([2]; rats treated with MTC and propionyl L-carnitine 0.15 mM, anterior chamber, fluorescence microscopy, FIG. 2B): the presence of TUNEL fluorescence was not observed
cell growth (cell count) compared to untreated control cells [3]: an increase in cell growth
cytoprotective effect, dependence on concentration ([4]; 0.25 mM, 0.55 mM, 1.1 mM): increased with the increase in concentration
chromatin fragmentation (TUNEL fluorescence intensity) ([4]; serum-deprived 3T6 cells vs untreated serum-deprived cells, FIG. 3B): a marked reduction in chromatin fragmentation
alterations of chromatin condensation (haematoxylin counterstaining) (BAX; serum-deprived 3T6 cells after treatment): tend to be reduced
BAX expression, dependence on concentration (BAX; serum-deprived 3T6 cells, 0.25 mM, 0.55 mM, 1.1 mM): proportional to the different concentrations
expression of BAX compared to untreated serum-deprived cells (BAX; serum-deprived 3T6 cells, FIG. 4B): a lower expression of BAX
cell viability compared to negative control (complete medium) [5]: still less than that obtained in the negative control
cell mortality compared to serum-deprived cells (positive control) ([5]; count 24 hours after administration): a reduction in cell mortality
